Here are results for three molecules from PMC5515891 (Scientific Reports, 2017).

Molecules are shown by their SMILES.

Opc, sequence (Q7DDI3 20-272 limits assumed): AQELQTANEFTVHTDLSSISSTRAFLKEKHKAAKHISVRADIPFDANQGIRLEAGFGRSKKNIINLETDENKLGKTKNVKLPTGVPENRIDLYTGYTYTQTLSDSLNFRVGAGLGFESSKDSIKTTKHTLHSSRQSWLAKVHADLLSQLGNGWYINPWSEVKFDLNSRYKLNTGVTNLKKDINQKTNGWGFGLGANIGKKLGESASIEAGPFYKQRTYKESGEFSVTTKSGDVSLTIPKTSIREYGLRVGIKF

This experiment concerns the target Opc (Neisseria meningitidis, UniProt Q7DDI3). Format: binding. To be noted: Opc+ outer membrane preparation (4 mg/ml, PBS) in cell, 100 µM glycan in syringe; Opc- preparation and PBS controls subtracted.
The term Kd denotes the equilibrium constant for the complex coming apart. `CC(=O)N[C@H]1[C@H]([C@H](O)[C@H](O)CO)O[C@@](OC[C@H]2O[C@@H](O[C@H]3[C@H](O)[C@@H](O)C(O)O[C@@H]3CO)[C@H](O)[C@@H](O)[C@H]2O)(C(=O)O)C[C@@H]1O` (stereo partly drawn) [11B, Neu5Acα2-6Galβ1-4Glc] came in with an equilibrium dissociation constant (Kd) of 0.713 ± 0.14 µM.

In turn, `C[C@@H]1O[C@@H](O[C@H]2C(O)O[C@H](CO)[C@H](O)[C@@H]2O)[C@@H](O)[C@H](O)[C@@H]1O` (stereo partly drawn) [compound 71, Fucα1-2Galβ] showed a dissociation constant (Kd) of 2.95 ± 0.59 µM.

Molecule `CC(=O)N[C@H]1[C@H](O[C@H]2[C@@H](O)[C@@H](CO)O[C@@H](O[C@H]3[C@H](O)[C@@H](O)C(O)O[C@@H]3CO)[C@@H]2O)O[C@H](CO)[C@@H](O[C@@H]2O[C@H](CO)[C@H](O)[C@H](O)[C@H]2O)[C@@H]1O` (stereo partly drawn) [compound 383, Galβ1-4GlcNAcβ1-3Galβ1-4Glcβ] came in with a Kd of 1.77 ± 0.69 µM.
